Results reported in US9102636B2, “Analgesic compounds, compositions, and uses thereof” (Galleon Pharmaceuticals, Inc., priority 2010, dated 2015).
Several values for one entry are separate records, joined by “and”; a condition that tells them apart may be missing. Equal values may be shown once. Entries after “also recorded” stand apart in the source; their conditions may differ.

Tests used:
[1] = tested on: fentanyl analgesia (Hargreaves); test: Preservation of fentanyl analgesia in Hargreaves thermal plantar model; format: in vivo; conditions: rat; compound IV 15 min before fentanyl 25 μg/kg; FIG. 2
[2] = tested on: hyperalgesia following incisional surgery; test: Incisional hyperalgesia, dosing at conclusion of surgery; format: in vivo; conditions: rat; IV at conclusion of surgical incision; FIG. 9
[3] = tested on: hyperalgesia following incisional surgery; test: Established incisional hyperalgesia, dosing 24 hours after surgery; format: in vivo; conditions: rat; given 24 hours after surgical incision; FIG. 10
[4] = tested on: FCA induced thermal hyperalgesia; test: FCA induced thermal hyperalgesia (Hargreaves); format: in vivo, rat; conditions: for Paw withdrawal latency: individual rats, FIG. 18A
Protocol: (§1) Compound 2 was evaluated in the rat Freund's complete adjuvant (FCA) model of inflammatory pain. The rat Freund's complete adjuvant (FCA) intraplantar model of inflammatory pain produces behaviors similar to those observed in patients and has been widely used to assess novel pharmacological treatments (Lam et al., 2008, J Ethnopharmacol. 120:44-50). The positive control was celecoxib (TRC, Montreal), and the negative control was vehicle (0.5% methyl cellulose, in phosphate buffered saline). […] The Hargreaves apparatus was obtained from Ugo Basile, Italy. The Freund's complete adjuvant was obtained from Sigma, St. Louis, and the electronic von frey was obtained from Stoelting, Ill. For this assay, paw withdrawal latency to a thermal stimulus was assessed using a radiant heat source (Ugo Basile, Italy) aimed at the plantar surface of the left hind paw (Hargreaves test; […] Paw withdrawal thresholds to a non-noxious tactile stimulus was assessed using an electronic von Frey apparatus that presented an increasing mechanical force to the plantar surface of the hind paw. Paw volume was measured by displacement of water and assuming a tissue density equal to that of water. […] Celecoxib (30 mg/kg p.o.) served as the positive control. […] After induction of anesthesia, the injection site was prepared in a sterile manner and 100 μl of a 50% suspension of FCA injected. After injection, animals were weighed and allowed to recover before being returned to their home cages. Statistical significance was determined on untransformed data using a two-way analysis of variance (Graphpad Prism, NC). Significant main effects were analyzed further by subsequent Bonferronni post-hoc test. The level of significance was set at p<0.05. Data are shown as mean±S.E.M. (with an asterisk to denote significance as compared to vehicle treated controls).

[5] = tested on: FCA induced tactile allodynia; test: FCA induced tactile allodynia (electronic von Frey); format: in vivo, rat
Protocol: as §1

[6] = tested on: Carrageenan-induced thermal hyperalgesia; test: Carrageenan-induced thermal hyperalgesia (Hargreaves); format: in vivo, rat; conditions: for Paw withdrawal latency: Pre-Cg, individual rats, FIG. 21A
Protocol: The effect of Compound 2 in the rat carrageenan model of acute inflammatory pain was evaluated. The intraplantar carrageenan model of acute inflammatory pain in the rat results in behaviors similar to that observed in patients and has been widely used to assess novel pharmacological treatments (Whiteside et al., 2005, J. Pharmacol. Exp. Ther. 314:1234-1240). The objective of this study was to evaluate the ability of Compound 2 to reverse or prevent development of thermal hyperalgesia and edema in the rat carrageenan model of acute inflammatory pain. The positive control was indomethacin (Sigma, St. Louis), and the negative control was vehicle (0.5% methyl cellulose). […] The Hargreaves apparatus was obtained from Ugo Basile, Italy, and the lamba-carrageenan was obtained from Sigma, St. Louis. For this assay, paw withdrawal latency to a thermal stimulus was assessed using a radiant heat source (Ugo Basile, Italy) aimed at the plantar surface of the left hind paw (Hargreaves test). […] Paw volume was measured by displacement of water and assuming a tissue density equal to that of water. Baseline latencies were taken prior to carrageenan administration and re-assessed 4 h later. Compound 2 or vehicle was administered (10 and 30 mg/kg, p.o.) 3 hrs after carrageenan (curative) and behavior assessed 1 hr later. […] Indomethacin (positive control, 30 mg/kg p.o.) was administered prior to carrageenan and behavior assessed 4 hrs post-carrageenan. […] After induction of anesthesia, the injection site was prepared in a sterile manner and 50 μl of a 2% Jamba-carrageenan was injected. After injection, animals were weighed and allowed to recover before being returned to their home cages. Statistical significance was determined on untransformed data using a two-way analysis of variance (Graphpad Prism, NC). Significant main effects were analyzed further by subsequent Bonferronni post-hoc test. The level of significance was set at p<0.05. Data are shown as mean±S.E.M. (with an asterisk to denote significance as compared to vehicle treated controls).

With `CC1(C)SC(Nc2ccccc2O)=N[C@@H]1C(=O)O` [Compound 2, (R)-2-(2-hydroxyphenylamino)-thiazoline-5,5-dimethyl-4-carboxylic acid] the “preservation of fentanyl analgesia, Hargreaves thermal hyperalgesia model” value [1] was “dose-dependently preserves fentanyl analgesia”, the “development of hyperalgesia following incisional surgery” value [2] was “inhibits the development of hyperalgesia following incisional surgery” and the “reversal of hyperalgesia following incisional surgery” value [3] was “reverses hyperalgesia following incisional surgery”. The “Paw withdrawal latency” value ([4]; baseline (prior to FCA)) was 16.6 s and 17.55 s and 20.74 s and 20.9 s and 20.6 s and 19.33 s, the “Paw withdrawal latency” value ([4]; day 1, compound 2 25 mg/kg i.v. preemptive, 25 mg/kg) was 14.4 s and 156.3 s and 15.1 s (2×) and 15.7 s and 22.7 s and the “Paw withdrawal latency” value ([4]; day 3, compound 2 25 mg/kg i.v. preemptive, 25 mg/kg) was 12.5 s and 19.12 s and 19.5 s (2×) and 15.7 s and 17.7 s. For the same compound, the “Paw withdrawal latency” value ([4]; day 4, compound 2 25 mg/kg i.v. preemptive, 25 mg/kg) was 14 s and 16.25 s and 16.51 s (2×) and 16.6 s and 18.2 s, the “FCA thermal hyperalgesia (finding in words)” value ([4]; rat, single dose 25 mg/kg i.v. preemptive, significant 72 hours post-FCA, 25 mg/kg) was “prevented the development; also recorded: significantly prevented” and the “Paw withdrawl threshold” value ([5]; 30 (min post-dose), 30 mg/kg p.o. 24 hours post-FCA, 30 mg/kg) was 19.3 g and 32.6 g and 27.3 g and 30.2 g and 26.3 g and 19.5 g. The “Paw withdrawl threshold” value ([5]; 30 (min post-dose), 100 mg/kg p.o. 24 hours post-FCA, 100 mg/kg) was 28.6 g and 27.9 g and 19.3 g and 34.6 g and 31.6 g and 21 g, the “Paw withdrawl threshold” value ([5]; 60 (min post-dose), 3 mg/kg p.o. 24 hours post-FCA, 3 mg/kg) was 22 g and 16.5 g and 21.4 g and 15.7 g and 22.3 g and 18 g and the “Paw withdrawl threshold” value ([5]; 60 (min post-dose), 30 mg/kg p.o. 24 hours post-FCA, 30 mg/kg) was 24 g and 24.2 g and 26.5 g and 21.6 g and 27.4 g and 31.1 g. For the same compound, the “Paw withdrawl threshold” value ([5]; 60 (min post-dose), 100 mg/kg p.o. 24 hours post-FCA, 100 mg/kg) was 31.2 g and 27.5 g and 35.3 g and 29.1 g and 30.3 g and 34.6 g, the “Paw withdrawl threshold” value ([5]; BL(D1), 24 hours post-FCA before dosing, 3 mg/kg group, 3 mg/kg) was 20.5 g and 15.3 g and 18.5 g and 16.5 g and 17.3 g and 15.8 g and the “Paw withdrawl threshold” value ([5]; BL(D1), 24 hours post-FCA before dosing, 30 mg/kg group, 30 mg/kg) was 15 g and 19.2 g and 18.2 g and 22.5 g and 17.8 g and 16.5 g. The “Paw withdrawl threshold” value ([5]; BL(D1), 24 hours post-FCA before dosing, 100 mg/kg group, 100 mg/kg) was 12.8 g and 13.9 g and 16 g and 19.3 g and 23.51 g and 12.6 g, the “Paw withdrawl threshold” value ([5]; baseline (pre-FCA), 3 mg/kg group, individual rats, 3 mg/kg) was 36.1 g and 32.4 g and 35.8 g and 33.4 g and 34.4 g and 30.9 g and the “Paw withdrawl threshold” value ([5]; baseline (pre-FCA), 10 mg/kg group, individual rats, 10 mg/kg) was 28.6 g and 26.67 g and 37.9 g and 31.3 g and 39 g and 31.8 g. The “Paw withdrawl threshold” value ([5]; baseline (pre-FCA), 30 mg/kg group, individual rats, 30 mg/kg) was 33.2 g and 34.9 g (2×) and 36.6 g and 35.6 g and 33.4 g, the “Paw withdrawl threshold” value ([5]; baseline (pre-FCA), 100 mg/kg group, individual rats, 100 mg/kg) was 31.8 g and 26.6 g and 27.6 g and 33.33 g and 37.8 g and 31.9 g and the “Paw withdrawal latency (s), FIG. 18B” value ([5]; baseline (prior to FCA), individual rats) was 29.6 s (2×) and 32.5 s and 29.8 s and 27.5 s and 31.4 s. For the same compound, the “Paw withdrawal latency (s), FIG. 18B” value ([5]; day 1, compound 2 25 mg/kg i.v. preemptive, individual rats, 25 mg/kg) was 36.7 s and 26.7 s and 38.9 s and 25 s and 27 s and 29 s, the “Paw withdrawal latency (s), FIG. 18B” value ([5]; day 3, compound 2 25 mg/kg i.v. preemptive, individual rats, 25 mg/kg) was 29.8 s and 28 s and 30 s and 27.7 s and 23.5 s and 33.8 s and the “Paw withdrawal latency (s), FIG. 18B” value ([5]; day 4, compound 2 25 mg/kg i.v. preemptive, individual rats, 25 mg/kg) was 25 s and 27.23 s and 36.5 s and 31.3 s and 31.9 s and 24.3 s. For the same compound, the “reversal of FCA-induced tactile allodynia (finding in words)” value ([5]; rat, 3, 10, 30 and 100 mg/kg p.o. curative, 24 hours post-FCA, significant at 10, 30 and 100 mg/kg, 30 and 60 minutes) was “significant reversal of FCA induced tactile allodynia; also recorded: able to reverse established inflammatory tactile allodynia; also recorded: significantly reversed”, the “FCA-induced tactile allodynia (finding in words)” value ([5]; rat, p.o. single dose 25 mg/kg preemptive) was “significantly prevented” and the “FCA tactile allodynia (finding in words)” value ([5]; rat, single dose 25 mg/kg i.v. preemptive, significant 24, 48 and 72 hours post-FCA, 25 mg/kg) was “prevented the development; also recorded: significantly prevented”. The “Paw withdrawal latency” value ([6]; compound 2 10 mg/kg group, 10 mg/kg) was 19.8 s and 15.34 s and 22.07 s and 17.39 s and 31.03 s and 14.07 s, the “Paw withdrawal latency” value ([6]; compound 2 30 mg/kg group, 30 mg/kg) was 23.87 s and 12.41 s and 16.08 s and 28.86 s and 18.1 s and 22.77 s and 17.58 s and the “carrageenan-induced thermal hyperalgesia, curative (finding in words)” value ([6]; rat, 10 and 30 mg/kg p.o. 3 hours post-carrageenan) was “without significantly reversing thermal hyperalgesia; also recorded: did not significantly reverse thermal hyperalgesia”.
